In ChEMBL document CHEMBL1201862, “PubChem BioAssay data set” (2004):
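A five-concentration, 48-hour dose response in 96-well plates underlies each endpoint, interpolated linearly between surrounding concentrations. Abbreviation: GI50, concentration required for 50% inhibition of growth.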 The source made the active and inactive calls. Rule as the data show it: active = GI50 up to about 1.1 µM and inactive = higher.

What was measured:
Test in all cases: DTP human tumour cell line panel, 48 h
[1] = tested on: A498
[2] = tested on: ACHN
[3] = tested on: BT-549
[4] = tested on: COLO 205
[5] = tested on: DU-145
[6] = tested on: EKVX
[7] = tested on: HCT-116
[8] = tested on: IGROV-1
[9] = tested on: K562
[10] = tested on: M14
[11] = tested on: MDA-MB-435
[12] = tested on: MDA-N
[13] = tested on: MOLT-4
[14] = tested on: Malme-3M
[15] = tested on: NCI-H226
[16] = tested on: NCI-H23
[17] = tested on: NCI-H522
[18] = tested on: OVCAR-3
[19] = tested on: OVCAR-5
[20] = tested on: PC-3
[21] = tested on: RXF 393
[22] = tested on: SK-MEL-2
[23] = tested on: SK-MEL-5
[24] = tested on: SK-OV-3
[25] = tested on: T47D
[26] = tested on: UACC-257
[27] = tested on: UO-31
[28] = tested on: 786-0
[29] = tested on: A549
[30] = tested on: CCRF-CEM
[31] = tested on: HCC 2998
[32] = tested on: HCT-15
[33] = tested on: HL-60
[34] = tested on: HOP-62
[35] = tested on: HOP-92
[36] = tested on: HT-29
[37] = tested on: Hs-578T
[38] = tested on: KM12
[39] = tested on: LOX IMVI
[40] = tested on: MCF7
[41] = tested on: MDA-MB-231
[42] = tested on: NCI-H460
[43] = tested on: NCI/ADR-RES
[44] = tested on: OVCAR-8
[45] = tested on: RPMI-8226
[46] = tested on: SF-268
[47] = tested on: SF-295
[48] = tested on: SF-539
[49] = tested on: SK-MEL-28
[50] = tested on: SNB-19
[51] = tested on: SNB-75
[52] = tested on: SR
[53] = tested on: SW-620
[54] = tested on: TK-10
[55] = tested on: U-251
[56] = tested on: UACC-62

Measured: GI50

Clc1ccc(-c2cc(-c3cc(-c4ccc(Cl)cc4)[nH]n3)[nH]n2)cc1
inactive: [1] > 100 µM | [2] > 100 µM | [3] > 100 µM | [4] > 100 µM | [5] > 100 µM | [6] > 100 µM | [7] > 100 µM | [8] > 100 µM | [9] > 100 µM | [10] > 100 µM | [11] > 100 µM | [12] > 100 µM | [13] > 100 µM | [14] > 100 µM | [15] > 100 µM | [16] > 100 µM | [17] > 100 µM | [18] > 100 µM | [19] > 100 µM | [20] > 100 µM | [21] > 100 µM | [22] > 100 µM | [23] > 100 µM | [24] > 100 µM | [25] > 100 µM | [26] > 100 µM | [27] > 100 µM

O=C(O)CCC(NC(=O)c1ccc(Nc2nc3cc(C(F)(F)F)ccc3nc2C(=O)O)cc1)C(=O)O (stereo unspecified)
> 100 µM: [32]
inactive: [28] > 100 µM | [1] > 100 µM | [29] > 100 µM | [2] > 100 µM | [30] > 100 µM | [4] > 100 µM | [5] > 100 µM | [6] > 100 µM | [31] > 100 µM | [7] > 100 µM | [33] > 100 µM | [34] > 100 µM | [35] > 100 µM | [36] > 100 µM | [37] > 100 µM | [8] > 100 µM | [9] > 100 µM | [38] > 100 µM | [39] > 100 µM | [10] > 100 µM | [40] > 100 µM | [41] > 100 µM | [11] > 100 µM | [12] > 100 µM | [13] > 100 µM | [14] > 100 µM | [15] > 100 µM | [16] > 100 µM | [42] > 100 µM | [17] > 100 µM | [43] > 100 µM | [18] > 100 µM | [19] > 100 µM | [44] > 100 µM | [20] > 100 µM | [45] > 100 µM | [21] > 100 µM | [46] > 100 µM | [47] > 100 µM | [48] > 100 µM | [49] > 100 µM | [22] > 100 µM | [23] 79.8 µM | [50] > 100 µM | [51] > 100 µM | [52] > 100 µM | [53] > 100 µM | [25] 48.3 µM | [54] > 100 µM | [55] > 100 µM | [26] > 100 µM | [56] > 100 µM | [27] > 100 µM
